The values that follow come from patent US6984640B1, “Antiparasitic artemisinin derivatives (endoperoxides)” (Bayer Aktiengesellschaft, priority 1998, dated 2006).

The subject of one test is Neospora. Conditions: administered via drinking water; cited from earlier work.
The test system of test [1] is Plasmodium falciparum W2 strain (chloroquine resistant). Nature of the test: In vitro screening against Plasmodium falciparum, 3H-hypoxanthine incorporation, W2 strain. The class given is cell-based. Conditions: 66 hours incubation. The source says:
(§1) Two parasite strains—W2 resistant to chloroquine, and D6 sensitive to chloroquine but resistant to mefloquine were used. In Table IV below, the best compounds should show no cross resistance between the two strains.
(§2) The assay relies on incorporation of radiolabelled hypoxanthine by the parasite and inhibition of incorporation is attributed to activity of known or candidate antimalarial drugs. For each assay, proven antimalarials such as chloroquine, mefloquine, quinine, artemisinin and pyrimethamine were used as controls. The incubation period was 66 hours, and the starting parasitemia was 0.2% with 1% hematocrit. The medium was an RPMI-1640 culture with no folate or p-aminobenzoic acid. Albumax rather than 10% normal heat inactivated human plasma was used as, with Albumax, less protein binding is observed, and compounds elicit slightly higher activities in this model. If a compound was submitted with no prior knowledge of activity, it was dissolved directly in dimethyl sulphoxide (DMSO), and diluted 400 fold with complete culture medium. The unknown compound was started at a maximum concentration of 50,000 ng ml^−1 and sequentially diluted 2-fold for 11 times to give a concentration range of […]. These dilutions were performed automatically by a Biomek 1000 Liquid Handling System in 96-well microtiter plates. The diluted drugs were then transferred to test plates, 200 μl of parasitized erythrocytes were added, and incubated at 37° C. in a controlled environment of 5% CO2, 5% O2 and 90% N2. After 42 hours, 25 μl of ^3H-hypoxanthine was added, and the plates incubated for an additional 24 hours. After 66 hours, the plates were frozen at −70° C. to lyse the red cells, and then thawed and harvested onto glass fiber filter mats in a 96-well harvester. The filter mats were then counted in a scintillation counter. For each drug, the concentration response profile was determined and 50%, 90% and 10% inhibitory concentrations (IC50 IC90 and IC10) were determined by a non-linear logistic dose response analysis program.
(§3) A prescreen format can be used wherein a 3-dilution assay may be used to determine activity at high medium or low concentrations. The concentrations were selected as 50,000, 500 and 50 ng ml^−1. These were performed in duplicate on a 96-well format plate with 14 test compounds and one known (standard) compound per plate. The system was automated with a Biomek diluter for mixing and diluting the drugs, and adding drugs and parasites to a test plate. In the prescreen format, if the ANALYSIS FIELD (AP) has a “<”, then the compound was “very active” and the IC values are most likely to be below the last dilution value (in nanograms/ml), which is listed next to AF. In most cases, these compounds were run again at lower starting concentration to determine the true IC value. If the AF has a “>”, then the IC value is greater than the prescreen dilution value; thus “AF>250” means that the IC value is greater than 250 ng ml^−1 and no further screening is carried out. In such cases, values of 0.00 are entered for IC values.

Another test relates to Eimeria tenella. Nature of the test: Screening against Eimeria tenella cell cultures in vitro (chick kidney cells). The class given is cell-based. Conditions: day 5 post infection. As to the method:
Cells from kidneys of 19 day old chicks are cultured as monolayers in 96-well plates (Falcon 3872) in a medium of Hanks lactalbumine hydrolysate, 5% fetal calf serum, 1% glutamine and 1% non-essential amino acids. After two days at 42° C. under 5% CO2, the culture was infected with excised sporozoites of Eimeria tenella at about […] per well. Test compounds were dissolved in DKSO and diluted with culture medium to a maximum end concentration of 10 μg ml^−1. The dilution steps were 1:10. On day 5 post infection, the cultures were evaluated under a microscope at 100-fold magnification and the condition of the host cells and the amount of intact schizonts and free merozoites was determined.

Test [2] has as its system Plasmodium falciparum D6 strain (chloroquine sensitive). The experiment in a line: In vitro screening against Plasmodium falciparum, 3H-hypoxanthine incorporation, D6 strain. Type of test: cell-based. As to conditions: 66 hours incubation.
Description: as §1, §2, §3

A further test deals with Neospora caninum. The experiment in a line: Screening against Neospora caninum cell cultures in vitro (VERO or ED host cells). The class given is cell-based. Conditions: microscopic evaluation 4 days after treatment. On the set-up: key: 0 = no effect monolayer completely destroyed; 1 = weak effect monolayer partly destroyed, parasite clumps can be seen; 2 = full effect monolayer intact, no tachyzoites observable; T = cytotoxic cells are dead, lysed. The method, then: Screening was conducted in 96-well plates (Falcon 3872). A monolayer of host cells (VERO or ED) were placed on a cell culture plate. Non-infected mono-layers of cells were cultured in two 50 ml tissue culture bottles ([…] cell culture area). The cell layer was detached with trypsin-EDTA (5 ml. Gibco 45300-019) in a CO2-culture cupboard at 37° C. After 10 minutes, most of the cells were detached. The cells were transferred with a 5 ml pipette into a 50 ml centrifuge tube (Greiner, B769331) containing about 1 ml warmed fetal calf serum. After centrifugation for 5 minutes at 1500 rpm (Varifuge 3.0, Heraeus), the liquid was removed and the cell pellet suspended in RPMI medium (100 ml, 95% RPMI 1640, 2% FCS, 1% L-glutamine, 1% sodium hydrogen carbonate, 1% penicillin/streptomycin). The cell suspension was pipetted into six 96-well plates at 150 μl per well. The coated cell culture plates were placed in an incubation cupboard at 37° C. under 5% CO2 for 24 hours. The cells were then infected with Neospora caninum tachyzoites at a concentration of 48,000 tachyzoites per well. This was followed by incubation at 37° C. under 5% CO2 for 24 hours.
The test compounds (0.5-1.5 mg) were weighed into 1.5 ml eppendorf vessels and dissolved in 1 ml dimethyl sulphoxide, corresponding to a dilution of about 1×10^−3 g ml^−1. The medium used for further dilution consisted of 87% RPMI 1640, 10% FCS, 1% L-glutamine, 1% sodium hydrogen carbonate, 1% penicillin/streptomycin. In the first screening, concentrations of […], […] and 10^−7 g ml^−1 were used. The diluted preparations were then transferred to the cell culture plates at a volume of 150 μl per well after 24 hour infection with Neospora caninum. For the first row, untreated medium was used; this row contained infected and uninfected cells as controls. The cell plate was incubated at 37° C. under 5% CO2 for 5 days. Microscopic evaluation was conducted 4 days after treatment and 5 days after infection at a magnification of 25×10 in an inverse microscope according to the following evaluation scheme.

Turning to `Nc1ccc(S(=O)(=O)Nc2ncccn2)cc1` [Sulfadiazin], in the test with Neospora, the “efficacy against neosporosis in experimentally infected mice” value is “effective in experimentally infected mice, only if the treatment was prophylactic”.

As to `CC1CCC2C(C)C(c3ccccc3)OC3OC4(C)CCC1C32OO4` (stereo not drawn) [Example 2, 10β-phenyl-10-deoxo-10-dihydroartemisinin], the “In vitro activity: (IC10)” value amounted to 0.19 ng/mL in test [1] and 0.53 ng/mL in test [2]. Also, the “In vitro activity: IC50” value was 0.31 ng/mL in test [1] and 0.73 ng/mL in test [2]. Moreover, the “In vitro activity: IC90” value in test [1] was 0.52 ng/mL; in test [2] it was 0.99 ng/mL. For the same compound, the “Effectiveness rating against Eimeria tenella” value in the test on Eimeria tenella (Dose 10^−5 g/ml) is 2 (2 = active 1-6 parasites per well); in the test on Eimeria tenella (Dose 10^−6 g/ml), 2 (2 = active 1-6 parasites per well); in the test with Eimeria tenella (Dose 10^−7 g/ml), 1 (1 = weakly active up to 1 intact schizont/optical field of vision); with Eimeria tenella (Dose 10^−8 g/ml), 0 (0 = inactive >1 intact schizont/optical field of vision). The “Evaluation of effect against Neospora caninum” value in the test on Neospora caninum (Dose 10^−5 g/ml) was found to be 1; with Neospora caninum (Dose 10^−6 g/ml), 1; in the test on Neospora caninum (Dose 10^−7 g/ml), 0.
